Measured values as given in ChEMBL document CHEMBL4665658, “Quinoline and thiazolopyridine allosteric inhibitors of MALT1” (Bioorg Med Chem Lett, 2019).

Legend:
[1] = target: Cathepsin L2 (Homo sapiens) (UniProt O60911); experiment: Inhibition of cathepsin V (unknown origin) at 10 uM
[2] = target: Prothrombin (Homo sapiens) (UniProt P00734); experiment: Inhibition of thrombin (unknown origin) at 10 uM
Caspase-8 (Homo sapiens) = Caspase-8 (Homo sapiens) (UniProt Q14790); experiment: Inhibition of Caspase 8 (unknown origin) at 10 uM
Chain of Caspase-8 (Homo sapiens) (Q14790 217-374 limits assumed): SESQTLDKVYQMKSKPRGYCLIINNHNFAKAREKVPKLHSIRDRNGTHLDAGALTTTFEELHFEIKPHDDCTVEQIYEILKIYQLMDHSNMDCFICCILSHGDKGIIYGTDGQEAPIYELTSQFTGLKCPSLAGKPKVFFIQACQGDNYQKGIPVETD
Chain of Caspase-8 (Homo sapiens) (Q14790 385-479 limits assumed): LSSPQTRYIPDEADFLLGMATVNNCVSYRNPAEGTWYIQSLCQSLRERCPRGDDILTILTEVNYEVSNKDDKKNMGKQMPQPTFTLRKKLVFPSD

[3] = target: Cathepsin B (Homo sapiens) (UniProt P07858); experiment: Inhibition of cathepsin B (unknown origin) at 10 uM
Caspase-2 (Homo sapiens) = Caspase-2 (Homo sapiens) (UniProt P42575); experiment: Inhibition of Caspase 2 (unknown origin) at 10 uM
Chain of Caspase-2 (Homo sapiens) (P42575 170-325 limits assumed): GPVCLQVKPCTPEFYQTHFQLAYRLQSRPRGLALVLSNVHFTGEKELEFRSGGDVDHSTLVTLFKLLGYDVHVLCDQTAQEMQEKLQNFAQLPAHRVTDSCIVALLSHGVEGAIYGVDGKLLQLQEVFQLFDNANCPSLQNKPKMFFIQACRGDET
Chain of Caspase-2 (Homo sapiens) (P42575 334-452 limits assumed): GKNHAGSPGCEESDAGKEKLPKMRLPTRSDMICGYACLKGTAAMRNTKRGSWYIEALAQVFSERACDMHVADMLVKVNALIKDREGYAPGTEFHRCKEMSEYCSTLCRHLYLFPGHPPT

[4] = target: Urokinase-type plasminogen activator (Homo sapiens) (UniProt P00749); experiment: Inhibition of urokinase (unknown origin) at 10 uM
[5] = target: Kallikrein-1 (Homo sapiens) (UniProt P06870); experiment: Inhibition of KLK1 (unknown origin) at 10 uM
Chain of Kallikrein-1 (Homo sapiens) (P06870 25-262 limits assumed): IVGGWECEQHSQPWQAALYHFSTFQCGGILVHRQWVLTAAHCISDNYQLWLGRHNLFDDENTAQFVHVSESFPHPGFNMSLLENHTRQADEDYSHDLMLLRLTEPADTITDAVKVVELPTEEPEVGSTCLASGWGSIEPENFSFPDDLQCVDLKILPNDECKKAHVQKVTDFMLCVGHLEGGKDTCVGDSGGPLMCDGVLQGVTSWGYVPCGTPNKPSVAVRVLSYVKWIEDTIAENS

[6] = target: T1, Pro-cathepsin H (Homo sapiens) (UniProt P09668); experiment: Inhibition of cathepsin H (unknown origin) at 10 uM
T1 sequence (whole entry): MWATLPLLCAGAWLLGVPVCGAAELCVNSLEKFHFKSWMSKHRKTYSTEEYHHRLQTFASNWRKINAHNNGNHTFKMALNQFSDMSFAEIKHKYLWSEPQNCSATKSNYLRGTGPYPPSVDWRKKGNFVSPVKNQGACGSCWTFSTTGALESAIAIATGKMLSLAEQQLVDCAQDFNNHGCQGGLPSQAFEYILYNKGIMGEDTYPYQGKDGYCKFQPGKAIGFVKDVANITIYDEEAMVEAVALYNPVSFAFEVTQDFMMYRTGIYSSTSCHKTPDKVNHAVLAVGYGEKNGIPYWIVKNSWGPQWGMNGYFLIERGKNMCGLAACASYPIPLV

Homo sapiens [7] = species on record: Homo sapiens; experiment: Inhibition of Calpain (unknown origin) at 10 uM
[8] = target: Coagulation factor X (Homo sapiens) (UniProt P00742); experiment: Inhibition of factor Xa (unknown origin) at 10 uM
Chain of Coagulation factor X (Homo sapiens) (P00742 41-179 limits assumed): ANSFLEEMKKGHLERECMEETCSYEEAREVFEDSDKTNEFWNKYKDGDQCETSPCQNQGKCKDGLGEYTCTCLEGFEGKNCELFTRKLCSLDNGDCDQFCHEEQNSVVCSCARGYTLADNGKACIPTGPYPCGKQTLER
Chain of Coagulation factor X (Homo sapiens) (P00742 235-488 limits assumed): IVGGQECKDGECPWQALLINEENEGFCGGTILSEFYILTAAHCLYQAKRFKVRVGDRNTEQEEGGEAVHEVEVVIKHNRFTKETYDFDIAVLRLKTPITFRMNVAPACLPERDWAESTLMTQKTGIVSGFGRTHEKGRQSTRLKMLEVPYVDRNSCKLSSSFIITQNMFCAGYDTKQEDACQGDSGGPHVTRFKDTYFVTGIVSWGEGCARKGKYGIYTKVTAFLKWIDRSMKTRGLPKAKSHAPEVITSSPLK

Caspase-3 (Homo sapiens) = Caspase-3 (Homo sapiens) (UniProt P42574); experiment: Inhibition of Caspase 3 (unknown origin) at 10 uM
Chain of Caspase-3 (Homo sapiens) (P42574 29-175 limits assumed): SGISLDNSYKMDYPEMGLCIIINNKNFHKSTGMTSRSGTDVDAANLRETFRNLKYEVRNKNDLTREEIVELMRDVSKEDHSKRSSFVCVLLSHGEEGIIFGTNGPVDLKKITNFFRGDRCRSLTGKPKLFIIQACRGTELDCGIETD
Chain of Caspase-3 (Homo sapiens) (P42574 176-277 limits assumed): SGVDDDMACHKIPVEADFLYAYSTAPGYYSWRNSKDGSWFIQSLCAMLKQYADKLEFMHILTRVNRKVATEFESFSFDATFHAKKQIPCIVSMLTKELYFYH

Caspase-9 (Homo sapiens) = Caspase-9 (Homo sapiens) (UniProt P55211); experiment: Inhibition of Caspase 9 (unknown origin) at 10 uM
Chain of Caspase-9 (Homo sapiens) (P55211 1-315 limits assumed): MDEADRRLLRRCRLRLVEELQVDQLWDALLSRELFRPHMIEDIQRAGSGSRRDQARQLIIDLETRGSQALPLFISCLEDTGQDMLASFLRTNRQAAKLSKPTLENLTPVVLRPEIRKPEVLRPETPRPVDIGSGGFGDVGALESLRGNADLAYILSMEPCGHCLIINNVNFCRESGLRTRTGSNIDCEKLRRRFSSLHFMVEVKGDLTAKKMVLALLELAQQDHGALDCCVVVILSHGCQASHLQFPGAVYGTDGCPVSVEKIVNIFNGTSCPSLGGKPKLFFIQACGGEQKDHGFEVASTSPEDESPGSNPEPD
Chain of Caspase-9 (Homo sapiens) (P55211 331-416 limits assumed): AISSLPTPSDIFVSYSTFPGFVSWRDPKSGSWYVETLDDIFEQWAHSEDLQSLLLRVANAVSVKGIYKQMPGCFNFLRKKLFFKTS

[9] = target: Cathepsin E (Homo sapiens) (UniProt P14091); experiment: Inhibition of cathepsin E (unknown origin) at 10 uM
Chain of Cathepsin E (Homo sapiens) (P14091 whole entry): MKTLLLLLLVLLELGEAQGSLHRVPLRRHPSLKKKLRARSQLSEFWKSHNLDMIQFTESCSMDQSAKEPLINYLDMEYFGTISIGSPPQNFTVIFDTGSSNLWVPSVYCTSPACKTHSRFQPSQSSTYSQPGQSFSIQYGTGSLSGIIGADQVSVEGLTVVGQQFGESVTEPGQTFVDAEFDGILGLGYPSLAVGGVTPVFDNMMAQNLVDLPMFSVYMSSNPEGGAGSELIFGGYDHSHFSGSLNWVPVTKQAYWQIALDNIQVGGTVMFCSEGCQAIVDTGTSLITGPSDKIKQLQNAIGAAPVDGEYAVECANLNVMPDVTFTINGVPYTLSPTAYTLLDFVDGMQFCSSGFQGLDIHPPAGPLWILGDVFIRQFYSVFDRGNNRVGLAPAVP

[10] = target: Caspase-10 (Homo sapiens) (UniProt Q92851); experiment: Inhibition of Caspase 10 (unknown origin) at 10 uM
Chain of Caspase-10 (Homo sapiens) (Q92851 220-415 limits assumed): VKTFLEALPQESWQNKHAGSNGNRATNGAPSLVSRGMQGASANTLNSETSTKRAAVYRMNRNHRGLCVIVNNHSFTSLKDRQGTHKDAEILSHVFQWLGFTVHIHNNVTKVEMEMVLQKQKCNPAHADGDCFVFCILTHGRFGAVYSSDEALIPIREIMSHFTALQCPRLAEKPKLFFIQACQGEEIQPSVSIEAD
Chain of Caspase-10 (Homo sapiens) (Q92851 416-521 limits assumed): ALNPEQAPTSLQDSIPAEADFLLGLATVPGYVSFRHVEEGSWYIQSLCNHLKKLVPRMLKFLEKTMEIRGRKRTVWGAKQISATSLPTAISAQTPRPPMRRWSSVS

[11] = target: Cathepsin D (Homo sapiens) (UniProt P07339); experiment: Inhibition of cathepsin D (unknown origin) at 10 uM
Caspase-6 (Homo sapiens) = target: T2, Caspase-6 (Homo sapiens) (UniProt P55212); experiment: Inhibition of Caspase 6 (unknown origin) at 10 uM
T2 sequence (whole entry): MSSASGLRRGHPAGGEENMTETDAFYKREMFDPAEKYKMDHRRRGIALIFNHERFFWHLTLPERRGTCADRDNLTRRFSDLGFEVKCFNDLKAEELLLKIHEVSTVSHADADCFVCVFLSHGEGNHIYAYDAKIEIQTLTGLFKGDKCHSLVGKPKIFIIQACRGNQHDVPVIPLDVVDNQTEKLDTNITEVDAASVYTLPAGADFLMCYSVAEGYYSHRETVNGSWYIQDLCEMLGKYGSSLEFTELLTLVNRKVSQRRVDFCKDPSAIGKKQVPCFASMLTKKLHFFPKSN

[12] = target: T3, Cathepsin K (Homo sapiens) (UniProt P43235); experiment: Inhibition of cathepsin K (unknown origin) at 10 uM
T3 sequence (whole entry): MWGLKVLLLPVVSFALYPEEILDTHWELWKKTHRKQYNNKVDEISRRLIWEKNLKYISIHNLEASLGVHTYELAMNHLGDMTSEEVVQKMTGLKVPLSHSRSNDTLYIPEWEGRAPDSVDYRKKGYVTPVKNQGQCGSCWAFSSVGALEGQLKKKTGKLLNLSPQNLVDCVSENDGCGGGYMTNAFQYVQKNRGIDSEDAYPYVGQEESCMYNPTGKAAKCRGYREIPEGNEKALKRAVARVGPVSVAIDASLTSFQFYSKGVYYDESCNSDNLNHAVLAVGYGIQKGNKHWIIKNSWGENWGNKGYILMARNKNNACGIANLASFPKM

OCI-Ly3 = experiment: Antiproliferative activity against human OCILY3 cells by cell proliferation assay; type: functional, cell-based
Trypsin (Homo sapiens) = Trypsin (Homo sapiens) (UniProt P07477+P07478+P35030); experiment: Inhibition of trypsin (unknown origin) at 10 uM; type: protein assay
[13] = target: Procathepsin L (Homo sapiens) (UniProt P07711); experiment: Inhibition of cathepsin L (unknown origin) at 10 uM
Chain of Procathepsin L (Homo sapiens) (P07711 114-333 limits assumed): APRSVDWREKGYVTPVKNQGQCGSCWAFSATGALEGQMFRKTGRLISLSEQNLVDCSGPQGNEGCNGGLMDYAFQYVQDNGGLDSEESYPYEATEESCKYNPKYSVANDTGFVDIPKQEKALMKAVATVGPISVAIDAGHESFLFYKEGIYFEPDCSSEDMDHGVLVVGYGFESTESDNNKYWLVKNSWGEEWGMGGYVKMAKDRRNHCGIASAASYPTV

Caspase-7 (Homo sapiens) = Caspase-7 (Homo sapiens) (UniProt P55210); experiment: Inhibition of Caspase 7 (unknown origin) at 10 uM
Chain of Caspase-7 (Homo sapiens) (P55210 24-198 limits assumed): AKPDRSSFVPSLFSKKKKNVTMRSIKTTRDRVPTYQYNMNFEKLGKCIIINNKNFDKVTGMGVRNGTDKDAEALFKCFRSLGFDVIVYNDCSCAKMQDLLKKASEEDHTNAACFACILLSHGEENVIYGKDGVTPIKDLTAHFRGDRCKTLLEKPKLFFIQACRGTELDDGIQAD
Chain of Caspase-7 (Homo sapiens) (P55210 207-303 limits assumed): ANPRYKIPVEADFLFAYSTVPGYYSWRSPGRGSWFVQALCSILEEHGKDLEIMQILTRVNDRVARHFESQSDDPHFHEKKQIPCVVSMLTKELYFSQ

Legumain (Homo sapiens) = target: T4, Legumain (Homo sapiens) (UniProt Q99538); experiment: Inhibition of Legumain (unknown origin) at 10 uM
T4 sequence (whole entry): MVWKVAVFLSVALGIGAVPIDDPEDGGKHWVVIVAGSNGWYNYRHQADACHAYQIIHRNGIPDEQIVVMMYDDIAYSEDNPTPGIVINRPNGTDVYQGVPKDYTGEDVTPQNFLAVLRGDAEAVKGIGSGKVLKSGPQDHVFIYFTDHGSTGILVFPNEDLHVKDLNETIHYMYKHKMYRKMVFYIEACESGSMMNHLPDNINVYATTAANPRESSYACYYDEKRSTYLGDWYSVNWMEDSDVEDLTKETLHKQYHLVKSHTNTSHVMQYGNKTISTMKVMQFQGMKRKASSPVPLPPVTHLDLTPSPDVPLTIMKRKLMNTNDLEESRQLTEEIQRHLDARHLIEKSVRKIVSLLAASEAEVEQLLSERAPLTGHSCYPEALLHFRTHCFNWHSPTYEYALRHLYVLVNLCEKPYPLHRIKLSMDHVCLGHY

[14] = target: Cathepsin S (Homo sapiens) (UniProt P25774); experiment: Inhibition of cathepsin S (unknown origin) at 10 uM
Chain of Cathepsin S (Homo sapiens) (P25774 115-331 limits assumed): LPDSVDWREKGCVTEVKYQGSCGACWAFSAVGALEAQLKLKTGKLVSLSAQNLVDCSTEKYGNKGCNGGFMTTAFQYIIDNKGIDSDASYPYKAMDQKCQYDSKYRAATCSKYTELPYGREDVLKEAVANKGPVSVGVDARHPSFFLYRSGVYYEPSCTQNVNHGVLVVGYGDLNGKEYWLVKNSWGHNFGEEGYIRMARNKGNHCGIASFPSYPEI

[15] = target: Cathepsin G (Homo sapiens) (UniProt P08311); experiment: Inhibition of cathepsin G (unknown origin) at 10 uM
Chain of Cathepsin G (Homo sapiens) (P08311 whole entry): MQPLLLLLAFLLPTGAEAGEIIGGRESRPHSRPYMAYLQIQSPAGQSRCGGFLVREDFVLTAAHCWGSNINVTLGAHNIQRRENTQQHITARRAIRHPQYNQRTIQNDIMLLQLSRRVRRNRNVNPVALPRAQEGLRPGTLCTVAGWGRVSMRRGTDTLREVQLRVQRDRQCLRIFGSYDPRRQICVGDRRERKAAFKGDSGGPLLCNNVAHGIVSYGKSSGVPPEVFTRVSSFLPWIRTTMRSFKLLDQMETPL

Homo sapiens [16] = species on record: Homo sapiens; experiment: Inhibition of tryptase (unknown origin) at 10 uM
[17] = target: Kallikrein-2 (Homo sapiens) (UniProt P20151); experiment: Inhibition of KLK2 (unknown origin) at 10 uM
Chain of Kallikrein-2 (Homo sapiens) (P20151 whole entry): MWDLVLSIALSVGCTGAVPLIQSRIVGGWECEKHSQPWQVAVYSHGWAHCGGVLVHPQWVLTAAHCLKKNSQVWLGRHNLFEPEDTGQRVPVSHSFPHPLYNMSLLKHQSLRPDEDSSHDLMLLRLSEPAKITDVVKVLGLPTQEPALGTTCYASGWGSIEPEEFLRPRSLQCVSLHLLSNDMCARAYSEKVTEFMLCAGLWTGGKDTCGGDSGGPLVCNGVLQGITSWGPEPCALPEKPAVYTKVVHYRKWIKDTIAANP

Caspase-1 (Homo sapiens) = Caspase-1 (Homo sapiens) (UniProt P29466); experiment: Inhibition of Caspase 1 (unknown origin) at 10 uM
Chain of Caspase-1 (Homo sapiens) (P29466 120-297 limits assumed): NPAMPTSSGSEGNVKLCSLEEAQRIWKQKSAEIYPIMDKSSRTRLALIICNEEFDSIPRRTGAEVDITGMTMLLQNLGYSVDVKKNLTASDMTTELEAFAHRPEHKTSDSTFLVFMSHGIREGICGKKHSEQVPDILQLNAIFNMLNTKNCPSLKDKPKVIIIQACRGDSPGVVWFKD
Chain of Caspase-1 (Homo sapiens) (P29466 317-404 limits assumed): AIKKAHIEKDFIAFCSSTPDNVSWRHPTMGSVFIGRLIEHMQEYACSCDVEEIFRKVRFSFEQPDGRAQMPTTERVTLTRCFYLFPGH

Caspase-5 (Homo sapiens) = Caspase-5 (Homo sapiens) (UniProt P51878); experiment: Inhibition of Caspase 5 (unknown origin) at 10 uM
Chain of Caspase-5 (Homo sapiens) (P51878 137-327 limits assumed): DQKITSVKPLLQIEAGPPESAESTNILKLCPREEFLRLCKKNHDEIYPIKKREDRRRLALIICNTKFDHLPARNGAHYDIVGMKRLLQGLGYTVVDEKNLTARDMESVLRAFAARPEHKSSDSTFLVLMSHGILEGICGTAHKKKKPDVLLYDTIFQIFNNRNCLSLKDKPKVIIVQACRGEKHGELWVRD
Chain of Caspase-5 (Homo sapiens) (P51878 347-434 limits assumed): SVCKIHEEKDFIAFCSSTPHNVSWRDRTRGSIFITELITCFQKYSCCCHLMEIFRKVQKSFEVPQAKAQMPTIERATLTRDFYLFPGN

Caspase-4 (Homo sapiens) = target: T5, Caspase-4 (Homo sapiens) (UniProt P49662); experiment: Inhibition of Caspase 4 (unknown origin) at 10 uM
T5 sequence (whole entry): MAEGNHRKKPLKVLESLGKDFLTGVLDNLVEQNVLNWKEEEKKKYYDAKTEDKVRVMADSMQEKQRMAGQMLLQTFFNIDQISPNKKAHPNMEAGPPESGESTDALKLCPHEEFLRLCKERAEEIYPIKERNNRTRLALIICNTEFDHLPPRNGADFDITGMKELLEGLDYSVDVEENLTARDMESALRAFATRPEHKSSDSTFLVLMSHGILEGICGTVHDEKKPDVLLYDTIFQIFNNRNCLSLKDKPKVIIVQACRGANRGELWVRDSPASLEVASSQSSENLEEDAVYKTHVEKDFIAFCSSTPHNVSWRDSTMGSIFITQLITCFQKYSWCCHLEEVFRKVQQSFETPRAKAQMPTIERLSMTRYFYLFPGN

[18] = Aqueous solubility of the compound at pH 7; type: physicochemical; conditions: aqueous medium
[19] = Metabolic stability in mouse microsome assessed as half life; type: ADME; design: dose or concentration left out as unconfirmed; conditions: microsomes, read-out: Stabilty
[20] = Clearance in mouse at 1 mg/kg, iv; type: ADME, organism-based; conditions: in vivo
[21] = Plasma protein binding in human assessed as unbound fraction; type: ADME, cell-free; conditions: read-out: PPB
[22] = AUC (0 to infinity) in mouse at 1 mg/kg, iv or 5 mg/kg, po; type: ADME, organism-based; design: dose 5 mg/kg; conditions: in vivo
[23] = Oral bioavailability in mouse at 5 mg/kg; type: ADME, organism-based; conditions: in vivo
[24] = Metabolic stability in human microsome assessed as half life; type: ADME; design: dose or concentration left out as unconfirmed; conditions: microsomes, read-out: Stabilty
[25] = Half life in mouse at 1 mg/kg, iv or 5 mg/kg, po; type: ADME, organism-based; conditions: in vivo
[26] = Plasma protein binding in mouse assessed as unbound fraction; type: ADME, cell-free; design: dose or concentration left out as unconfirmed; conditions: read-out: PPB

Row | SMILES | inhibition [2] | inhibition (Caspase-8 (Homo sapiens)) | inhibition [3] | inhibition [4] | inhibition [5] | inhibition [6] | inhibition (Homo sapiens [7]) | inhibition (Caspase-3 (Homo sapiens)) | inhibition (Caspase-9 (Homo sapiens)) | inhibition [10] | inhibition (Caspase-6 (Homo sapiens)) | inhibition [12] | EC50 (OCI-Ly3) | inhibition (Trypsin (Homo sapiens)) | inhibition [13] | inhibition (Legumain (Homo sapiens)) | inhibition [14] | inhibition (Homo sapiens [16]) | inhibition [17] | inhibition (Caspase-4 (Homo sapiens)) | also measured
1 | CO[C@@H](C)c1c(NC(=O)Nc2cnc(-n3nccn3)c(Cl)c2)cnc2cc(Cl)nn12 | 98.7% | 99.7% | 99.9% | 108% | 99.7% | 98.8% | 98.8% | 99.9% | 89.2% | 89.9% | 88.1% | 102% | 120 nM | 100% | 99.7% | 88.4% | 100% | 99.4% | 94.8% | 110% | inhibition [1]: 99%; inhibition (Caspase-2 (Homo sapiens)): 87.3%; inhibition [8]: 99.8%; inhibition [9]: 100%; inhibition [11]: 99.8%; inhibition (Caspase-7 (Homo sapiens)): 98.1%; inhibition [15]: 92.5%; inhibition (Caspase-1 (Homo sapiens)): 99.7%; inhibition (Caspase-5 (Homo sapiens)): 92.6%
2 | CCOC(C)c1c(NC(=O)Nc2cnc(-n3nccn3)c(Cl)c2)cnc2sc(C)nc12 (stereo not drawn) | 18.8% | 10.8% | 1% | 22% | -9% | 14.1% | -9.4% | 1% | 17.5% | -5.2% | -3.9% | 11.8% | 360 nM | 1.9% | 21.9% | -4.2% | 15.7% | 2% | -2.6% | 9% | solubility [18]: < 4 µM; half-life [19]: 2.12 h; clearance [20]: 1.6 mL/min/kg; fraction unbound [21]: 0.025; AUC(0-inf) [22]: 10100 ng·h/mL; bioavailability [23]: 19%; half-life [24]: 0.717 h; half-life [25]: 3.2 h; fraction unbound [26]: 0.022
